#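 Interpolation was linear, between the two tested concentrations surrounding the appropriate level; five concentrations were tested over 48 hours in 96-well plates. GI50 = concentration required for 50% inhibition of growth. TGI: concentration producing complete growth inhibition.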
# Legend:
# Assay in all cases: DTP human tumour cell line panel, 48 h
# OVCAR-5 ovarian = system: OVCAR-5 ovarian
# IGROV1 ovarian = system: IGROV1 ovarian
# MDA-MB-231 breast = system: MDA-MB-231 breast
# M14 melanoma = system: M14 melanoma
# SNB-19 CNS = system: SNB-19 CNS
# SNB-75 CNS = system: SNB-75 CNS
# HCT-116 colon = system: HCT-116 colon
# RXF 393 renal = system: RXF 393 renal
# COLO 205 colon = system: COLO 205 colon
# HCT-15 colon = system: HCT-15 colon
# SF-295 CNS = system: SF-295 CNS
# LOX IMVI melanoma = system: LOX IMVI melanoma
# SK-OV-3 ovarian = system: SK-OV-3 ovarian
# T-47D breast = system: T-47D breast
# NCI-H226 lung = system: NCI-H226 lung
# MALME-3M melanoma = system: MALME-3M melanoma
# A549 NSCLC = system: A549 NSCLC
# EKVX NSCLC = system: EKVX NSCLC
# OVCAR-3 ovarian = system: OVCAR-3 ovarian
# KM12 colon = system: KM12 colon
# TK-10 renal = system: TK-10 renal
# MOLT-4 leukemia = system: MOLT-4 leukemia
# OVCAR-8 ovarian = system: OVCAR-8 ovarian
# ACHN renal = system: ACHN renal
# BT-549 breast = system: BT-549 breast
# HS 578T breast = system: HS 578T breast
# HOP-92 NSCLC = system: HOP-92 NSCLC
# A498 renal = system: A498 renal
# HCC-2998 colon = system: HCC-2998 colon
# MCF7 breast = system: MCF7 breast
# NCI-H460 lung = system: NCI-H460 lung
# SF-268 CNS = system: SF-268 CNS
# MDA-MB-435 = system: MDA-MB-435
# UO-31 renal = system: UO-31 renal
# SN12C renal = system: SN12C renal
# DU-145 prostate = system: DU-145 prostate
# SW-620 colon = system: SW-620 colon
# RPMI-8226 leukemia = system: RPMI-8226 leukemia
# CAKI-1 renal = system: CAKI-1 renal
# PC-3 prostate = system: PC-3 prostate
# UACC-62 melanoma = system: UACC-62 melanoma
# SF-539 CNS = system: SF-539 CNS
# OVCAR-4 ovarian = system: OVCAR-4 ovarian
# U251 CNS = system: U251 CNS
# HT29 colon = system: HT29 colon
# SK-MEL-5 melanoma = system: SK-MEL-5 melanoma
# NCI-H522 lung = system: NCI-H522 lung
# HL-60(TB) leukemia = system: HL-60(TB) leukemia
# SK-MEL-2 melanoma = system: SK-MEL-2 melanoma
# 786-0 renal = system: 786-0 renal
# HOP-62 NSCLC = system: HOP-62 NSCLC
# SK-MEL-28 melanoma = system: SK-MEL-28 melanoma
# SR leukemia = system: SR leukemia
# UACC-257 melanoma = system: UACC-257 melanoma
# CCRF-CEM leukemia = system: CCRF-CEM leukemia
# NCI-H23 lung = system: NCI-H23 lung
# NCI/ADR-RES ovarian = system: NCI/ADR-RES ovarian
# K-562 leukemia = system: K-562 leukemia
compound,measurement,setting,value
CC1=C([Se]CC(OC(=O)[C@@H](CO)NC(=O)OC(C)(C)C)C(=O)NCCCCCC(=O)OCc2ccccc2)C(=O)c2ccccc2C1=O (stereo partly specified),GI50,OVCAR-5 ovarian,2090 nM
same,TGI,OVCAR-5 ovarian,3.65 µM
same,GI50,IGROV1 ovarian,1790 nM
same,TGI,IGROV1 ovarian,3.37 µM
same,GI50,MDA-MB-231 breast,1680 nM
same,TGI,MDA-MB-231 breast,3.19 µM
same,GI50,M14 melanoma,1790 nM
same,TGI,M14 melanoma,3.3 µM
same,GI50,SNB-19 CNS,774 nM
same,TGI,SNB-19 CNS,2.11 µM
same,GI50,SNB-75 CNS,1290 nM
same,TGI,SNB-75 CNS,2.55 µM
same,GI50,HCT-116 colon,1390 nM
same,TGI,HCT-116 colon,2.73 µM
same,GI50,RXF 393 renal,2700 nM
same,TGI,RXF 393 renal,4.18 µM
same,GI50,COLO 205 colon,1820 nM
same,TGI,COLO 205 colon,3.35 µM
same,GI50,HCT-15 colon,1930 nM
same,TGI,HCT-15 colon,3.77 µM
same,GI50,SF-295 CNS,321 nM
same,TGI,SF-295 CNS,1.51 µM
same,GI50,LOX IMVI melanoma,1840 nM
same,TGI,LOX IMVI melanoma,3.72 µM
same,GI50,SK-OV-3 ovarian,1280 nM
same,TGI,SK-OV-3 ovarian,2.56 µM
same,GI50,T-47D breast,1620 nM
same,TGI,T-47D breast,3.95 µM
same,GI50,NCI-H226 lung,2250 nM
same,TGI,NCI-H226 lung,4.41 µM
same,GI50,MALME-3M melanoma,2070 nM
same,TGI,MALME-3M melanoma,3.82 µM
same,GI50,A549 NSCLC,1370 nM
same,TGI,A549 NSCLC,3.07 µM
same,GI50,EKVX NSCLC,1810 nM
same,TGI,EKVX NSCLC,3.87 µM
same,GI50,OVCAR-3 ovarian,1790 nM
same,TGI,OVCAR-3 ovarian,3.19 µM
same,GI50,KM12 colon,1530 nM
same,TGI,KM12 colon,2.9 µM
same,GI50,TK-10 renal,2040 nM
same,TGI,TK-10 renal,3.47 µM
same,GI50,MOLT-4 leukemia,1390 nM
same,TGI,MOLT-4 leukemia,4.93 µM
same,GI50,OVCAR-8 ovarian,1840 nM
same,TGI,OVCAR-8 ovarian,3.36 µM
same,GI50,ACHN renal,1650 nM
same,TGI,ACHN renal,3.07 µM
same,GI50,BT-549 breast,1730 nM
same,TGI,BT-549 breast,3.11 µM
same,GI50,HS 578T breast,1990 nM
same,TGI,HS 578T breast,4.64 µM
same,GI50,HOP-92 NSCLC,1870 nM
same,TGI,HOP-92 NSCLC,3.32 µM
same,GI50,A498 renal,2020 nM
same,TGI,A498 renal,5.93 µM
same,GI50,HCC-2998 colon,1980 nM
same,TGI,HCC-2998 colon,3.48 µM
same,GI50,MCF7 breast,1610 nM
same,TGI,MCF7 breast,3.36 µM
same,GI50,NCI-H460 lung,462 nM
same,TGI,NCI-H460 lung,1.61 µM
same,GI50,SF-268 CNS,1850 nM
same,TGI,SF-268 CNS,3.27 µM
same,GI50,MDA-MB-435,1790 nM
same,TGI,MDA-MB-435,3.49 µM
same,GI50,UO-31 renal,1540 nM
same,TGI,UO-31 renal,3.03 µM
same,GI50,SN12C renal,1950 nM
same,TGI,SN12C renal,3.59 µM
same,GI50,DU-145 prostate,1820 nM
same,TGI,DU-145 prostate,3.26 µM
same,GI50,SW-620 colon,1720 nM
same,TGI,SW-620 colon,3.25 µM
same,GI50,RPMI-8226 leukemia,2180 nM
same,TGI,RPMI-8226 leukemia,5.83 µM
same,GI50,CAKI-1 renal,1800 nM
same,TGI,CAKI-1 renal,3.32 µM
same,GI50,PC-3 prostate,1230 nM
same,TGI,PC-3 prostate,2580 nM
same,GI50,UACC-62 melanoma,1680 nM
same,TGI,UACC-62 melanoma,3.07 µM
same,GI50,SF-539 CNS,1700 nM
same,TGI,SF-539 CNS,3.09 µM
same,GI50,OVCAR-4 ovarian,1530 nM
same,TGI,OVCAR-4 ovarian,2.86 µM
same,GI50,U251 CNS,940 nM
same,TGI,U251 CNS,2.17 µM
same,GI50,HT29 colon,2150 nM
same,TGI,HT29 colon,3.97 µM
same,GI50,SK-MEL-5 melanoma,1590 nM
same,TGI,SK-MEL-5 melanoma,2.96 µM
same,GI50,NCI-H522 lung,2020 nM
same,TGI,NCI-H522 lung,3.5 µM
same,GI50,HL-60(TB) leukemia,2030 nM
same,TGI,HL-60(TB) leukemia,4.82 µM
same,GI50,SK-MEL-2 melanoma,2260 nM
same,TGI,SK-MEL-2 melanoma,4.08 µM
same,GI50,786-0 renal,2080 nM
same,TGI,786-0 renal,3.53 µM
same,GI50,HOP-62 NSCLC,414 nM
same,TGI,HOP-62 NSCLC,1.75 µM
same,GI50,SK-MEL-28 melanoma,1790 nM
same,TGI,SK-MEL-28 melanoma,3.21 µM
same,GI50,SR leukemia,1600 nM
same,TGI,SR leukemia,6.55 µM
O=c1c(Cl)cc2nc3ccccc3sc-2c1Cl,TGI,OVCAR-5 ovarian,78.9 µM
same,TGI,IGROV1 ovarian,28.1 µM
same,TGI,MDA-MB-231 breast,21.3 µM
same,TGI,M14 melanoma,37.2 µM
same,TGI,SNB-19 CNS,32.9 µM
same,TGI,SNB-75 CNS,32.7 µM
same,TGI,UACC-257 melanoma,8.2 µM
same,TGI,CCRF-CEM leukemia,43.3 µM
same,TGI,HCT-116 colon,32.5 µM
same,TGI,RXF 393 renal,32.5 µM
same,TGI,COLO 205 colon,38 µM
same,TGI,HCT-15 colon,32.3 µM
same,TGI,SF-295 CNS,34.4 µM
same,TGI,NCI-H23 lung,28 µM
same,TGI,LOX IMVI melanoma,43 µM
same,TGI,SK-OV-3 ovarian,39 µM
same,TGI,T-47D breast,> 100 µM
same,TGI,NCI-H226 lung,32.3 µM
same,TGI,MALME-3M melanoma,23.6 µM
same,TGI,A549 NSCLC,40.9 µM
same,TGI,EKVX NSCLC,14.9 µM
same,TGI,OVCAR-3 ovarian,5.93 µM
same,TGI,KM12 colon,38.4 µM
same,TGI,TK-10 renal,33.1 µM
same,TGI,MOLT-4 leukemia,> 100 µM
same,TGI,ACHN renal,30.2 µM
same,TGI,NCI/ADR-RES ovarian,56.9 µM
same,TGI,BT-549 breast,24.6 µM
same,TGI,HS 578T breast,> 100 µM
same,TGI,A498 renal,80.7 µM
same,TGI,HCC-2998 colon,34.7 µM
same,TGI,MCF7 breast,32.4 µM
same,TGI,NCI-H460 lung,35.1 µM
same,TGI,SF-268 CNS,28.5 µM
same,TGI,MDA-MB-435,7.8 µM
same,TGI,UO-31 renal,29.1 µM
same,TGI,SN12C renal,31.9 µM
same,TGI,DU-145 prostate,25.8 µM
same,TGI,SW-620 colon,34.9 µM
same,TGI,RPMI-8226 leukemia,25.9 µM
same,TGI,CAKI-1 renal,37.8 µM
same,TGI,UACC-62 melanoma,24.4 µM
same,TGI,SF-539 CNS,30.8 µM
same,TGI,K-562 leukemia,> 100 µM
same,TGI,OVCAR-4 ovarian,27.4 µM
same,TGI,U251 CNS,43.2 µM
same,TGI,HT29 colon,49.2 µM
same,TGI,SK-MEL-5 melanoma,13.9 µM
same,TGI,NCI-H522 lung,25.9 µM
same,TGI,HL-60(TB) leukemia,38.4 µM
same,TGI,SK-MEL-2 melanoma,27.1 µM
same,TGI,786-0 renal,45.8 µM
same,TGI,HOP-62 NSCLC,46.1 µM
same,TGI,SK-MEL-28 melanoma,35.2 µM
same,TGI,SR leukemia,30 µM
